Like-named read-outs stand apart in the source and are kept apart here.
Experiments:
human TLR7 = target: T1, human TLR7 (Homo sapiens, UniProt Q9NYK1); assay: Human TLR7 agonist activity assay (HEK-Blue TLR7 SEAP reporter); type: cell-based; settings: HEK-Blue TLR7 cells, 18 h treatment, average where assay was performed multiple times, read-out: hTLR7 Agonism EC50
T1 construct: host or cells: HEK-Blue TLR7 cells (engineered human embryonic kidney cells)
T1 sequence (Q9NYK1 27-1049): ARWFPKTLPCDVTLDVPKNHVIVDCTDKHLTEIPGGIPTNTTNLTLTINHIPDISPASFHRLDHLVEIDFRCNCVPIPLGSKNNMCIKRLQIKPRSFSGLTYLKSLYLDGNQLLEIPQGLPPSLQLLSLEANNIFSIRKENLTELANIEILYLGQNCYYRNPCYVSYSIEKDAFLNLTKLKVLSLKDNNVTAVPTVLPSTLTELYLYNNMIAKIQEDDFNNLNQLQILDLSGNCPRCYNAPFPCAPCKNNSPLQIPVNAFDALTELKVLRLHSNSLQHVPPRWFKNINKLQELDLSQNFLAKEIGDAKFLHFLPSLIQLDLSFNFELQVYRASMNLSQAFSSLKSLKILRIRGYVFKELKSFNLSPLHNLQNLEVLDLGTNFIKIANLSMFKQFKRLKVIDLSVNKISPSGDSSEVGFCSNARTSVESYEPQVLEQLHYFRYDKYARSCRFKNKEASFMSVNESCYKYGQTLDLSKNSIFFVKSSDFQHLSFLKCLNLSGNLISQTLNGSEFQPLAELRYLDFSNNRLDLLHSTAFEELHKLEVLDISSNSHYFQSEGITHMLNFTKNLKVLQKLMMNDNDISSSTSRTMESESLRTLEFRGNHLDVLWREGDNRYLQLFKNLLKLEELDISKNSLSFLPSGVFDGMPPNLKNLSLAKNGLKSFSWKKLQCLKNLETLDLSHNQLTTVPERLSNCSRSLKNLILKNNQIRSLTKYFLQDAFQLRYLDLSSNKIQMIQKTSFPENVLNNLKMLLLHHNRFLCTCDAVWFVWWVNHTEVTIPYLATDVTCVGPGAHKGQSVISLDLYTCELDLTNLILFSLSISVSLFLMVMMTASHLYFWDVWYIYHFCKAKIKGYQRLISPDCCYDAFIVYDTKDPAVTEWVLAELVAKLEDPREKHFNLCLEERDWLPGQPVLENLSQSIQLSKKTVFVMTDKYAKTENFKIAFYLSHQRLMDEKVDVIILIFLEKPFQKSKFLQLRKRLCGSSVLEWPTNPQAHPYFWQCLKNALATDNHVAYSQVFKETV
Procedure: This procedure describes a method for assaying human TLR7 (hTLR7) agonist activity of the compounds disclosed in this specification.
HEK-Blue™ TLR7 cells were added to each well of a 384-well tissue-culture plate (15,000 cells per well) and incubated 16-18 h at 37° C., 5% CO2. Compounds (100 nl) were dispensed into wells containing the HEK-Blue™ TLR cells and the treated cells were incubated at 37° C., 5% CO2. After 18 h treatment ten microliters of freshly-prepared Quanti-Blue™ reagent (Invivogen) was added to each well, incubated for 30 min (37° C., 5% CO2) and SEAP levels measured using an Envision plate reader (OD=620 nm).

CD69 = assay: Induction of CD69 in human whole blood; type: cell-based
Procedure: The induction of Type I interferon (IFN) MX-1 genes and the B-cell activation marker CD69 are downstream events that occur upon activation of the TLR7 pathway. The following is a human whole blood assay that measures their induction in response to a TLR7 agonist.
Heparinized human whole blood was harvested from human subjects and treated with test TLR7 agonist compounds at 1 mM. The blood was diluted with RPMI 1640 media and Echo was used to predot 10 nL per well giving a final concentration of 1 uM (10 nL in 10 uL of blood). After mixing on a shaker for 30 sec, the plates were covered and placed in a 37° C. chamber for o/n=17 hrs. Fixing/lysis buffer was prepared (5×->1× in H2O, warm at 37° C.; Cat #BD 558049) and kept the perm buffer (on ice) for later use.
For surface markers staining (CD69): prepared surface Abs: 0.045 ul hCD14-FITC (ThermoFisher Cat #MHCD1401)+0.6 ul hCD19-ef450 (ThermoFisher Cat #48-0198-42)+1.5 ul hCD69-PE (cat #BD555531)+0.855 ul FACS buffer. Added 3 ul/well, spin1000 rpm for 1 min and mixed on shaker for 30 sec, put on ice for 30 mins. Stop stimulation after 30 min with 70 uL of prewarmed 1× fix/lysis buffer and use Feliex mate to resuspend (15 times, change tips for each plate) and incubate at 37 C for 10 min.
Centrifuge at 2000 rpm for 5 min aspirate with HCS plate washer, mix on shaker for 30 sec and then wash with 70 uL in dPBS and pelleted 2×s (2000 rpm for 5 min) and 50 ul wash in FACS buffer pelleted 1×s (2000 rpm for 5 min). Mix on shaker for 30 sec. For Intracellular markers staining (MX-1): Add 50 ul of BD Perm buffer III and mix on shaker for 30 sec. Incubate on ice for 30 minutes (in the dark). Wash with 50 uL of FACS buffer 2× (spin @2300 rpm×5 min after perm) followed by mixing on shaker for 30 sec. Resuspended in 20 ul of FACS buffer containing MX1 antibody ( )(4812)-Alexa 647: Novus Biologicals #NBP2-43704AF647) 20 ul FACS bf+0.8 ul hlgG+0.04 ul MX-1. Spin 1000 rpm for 1 min, mix on shaker for 30se and the samples were incubated at RT in the dark for 45 minutes followed by washing 2×FACS buffer (spin @2300 rpm×5 min after perm). Resuspend 20 ul (35 uL total per well) of FACS buffer and cover with foil and place in 4° C. to read the following day. Plates were read on iQuePlus. The results were loaded into toolset and […] curves are generated in curve master. The y-axis 100% is set to 1 uM of resiquimod.

[1] = human whole blood, 17 hrs, CD69 surface staining, 100% set to 1 uM of resiquimod, average where assay was performed multiple times, read-out: hWB CD69 EC50
[2] = Homo sapiens, 17 h, read-out: hWB CD69 EC50 (nM)

SMILES	EC50 (human TLR7) [nM]	EC50 (CD69; [1]) [nM]	EC50 (CD69; [2]) [nM]
CCC[C@@H](CCO)Nc1nc(N)nc2cnn(Cc3ccc(C(=O)NCC4CCNCC4)cc3OC)c12 [Compound 101, 4-[(5-amino-7-{[(3S)-1-hydroxyhexan-3-yl]amino}-1H-pyrazolo[4,3-d]pyrimidin-1-yl)methyl]-3-methoxy-N-[(piperidin-4-yl)methyl]benzamide]	1300	≥ 1000	
CCCCNc1nc(N)nc2cnn(Cc3ccc(C(=O)NC4CCOCC4)cc3OC)c12 [Compound 102, 4-{[5-amino-7-(butylamino)-1H-pyrazolo[4,3-d]pyrimidin-1-yl]methyl}-3-methoxy-N-(oxan-4-yl)benzamide]		≥ 1000	
CCCCNc1nc(N)nc2cnn(Cc3ccc(C(=O)NC4CCC4)cc3OC)c12 [Compound 103, 4-{[5-amino-7-(butylamino)-1H-pyrazolo[4,3-d]pyrimidin-1-yl]methyl}-N-cyclobutyl-3-methoxybenzamide]	1660	≥ 1000	
CCCCNc1nc(N)nc2cnn(Cc3ccc(C(=O)N4CCNCC4)cc3OC)c12 [Compound 104, N7-butyl-1-{[2-methoxy-4-(piperazine-1-carbonyl)phenyl]methyl}-1H-pyrazolo[4,3-d]pyrimidine-5,7-diamine]	40.7	120	
CCCCNc1nc(N)nc2cnn(Cc3ccc(C(=O)N4CCN(CCO)CC4)cc3OC)c12 [Compound 105, 2-[4-(4-{[5-amino-7-(butylamino)-1H-pyrazolo[4,3-d]pyrimidin-1-yl]methyl}-3-methoxybenzoyl)piperazin-1-yl]ethan-1-ol]	32.6	32.1	
CCCCNc1nc(N)nc2cnn(Cc3ccc(C(=O)N4CCN(C)CC4)cc3OC)c12 [Compound 106, N7-butyl-1-{[2-methoxy-4-(4-methylpiperazine-1-carbonyl)phenyl]methyl}-1H-pyrazolo[4,3-d]pyrimidine-5,7-diamine]	20.8	4.5	
CCCCNc1nc(N)nc2cnn(Cc3ccc(C(=O)N4CCN(C(C)=O)CC4)cc3OC)c12 [Compound 107, 1-[4-(4-{[5-amino-7-(butylamino)-1H-pyrazolo[4,3-d]pyrimidin-1-yl]methyl}-3-methoxybenzoyl)piperazin-1-yl]ethan-1-one]	264	93.4	
CCCCNc1nc(N)nc2cnn(Cc3ccc(C(=O)N4CCN(CC(F)(F)F)CC4)cc3OC)c12 [Compound 108, N7-butyl-1-({2-methoxy-4-[4-(2,2,2-trifluoroethyl)piperazine-1-carbonyl]phenyl}methyl)-1H-pyrazolo[4,3-d]pyrimidine-5,7-diamine]	602	≥ 1000	
CCCCNc1nc(N)nc2cnn(Cc3ccc(C(=O)N4CCC(N(C)C)CC4)cc3OC)c12 [Compound 109, N7-butyl-1-({4-[4-(dimethylamino)piperidine-1-carbonyl]-2-methoxyphenyl}methyl)-1H-pyrazolo[4,3-d]pyrimidine-5,7-diamine]	29.7	49.6	
CCCCNc1nc(N)nc2cnn(Cc3ccc(C(=O)N4CCCN(C)CC4)cc3OC)c12 [Compound 110, N7-butyl-1-{[2-methoxy-4-(4-methyl-1,4-diazepane-1-carbonyl)phenyl]methyl}-1H-pyrazolo[4,3-d]pyrimidine-5,7-diamine]	16.3	3.9	
CCCCNc1nc(N)nc2cnn(Cc3ccc(C(=O)NCCN(C)C)cc3OC)c12 [Compound 111, 4-{[5-amino-7-(butylamino)-1H-pyrazolo[4,3-d]pyrimidin-1-yl]methyl}-N-[2-(dimethylamino)ethyl]-3-methoxybenzamide]	78	6.8	
CCCCNc1nc(N)nc2cnn(Cc3ccc(C(=O)N4CCC(CO)CC4)cc3OC)c12 [Compound 112, [1-(4-{[5-amino-7-(butylamino)-1H-pyrazolo[4,3-d]pyrimidin-1-yl]methyl}-3-methoxybenzoyl)piperidin-4-yl]methanol]	154	81.9	
CCCCNc1nc(N)nc2cnn(Cc3ccc(C(=O)N4CCC(O)CC4)cc3OC)c12 [Compound 113, 1-(4-{[5-amino-7-(butylamino)-1H-pyrazolo[4,3-d]pyrimidin-1-yl]methyl}-3-methoxybenzoyl)piperidin-4-ol]	111	106	
CCCCNc1nc(N)nc2cnn(Cc3ccc(C(=O)NC4CCN(C)CC4)cc3OC)c12 [Compound 114, 4-{[5-amino-7-(butylamino)-1H-pyrazolo[4,3-d]pyrimidin-1-yl]methyl}-3-methoxy-N-(1-methylpiperidin-4-yl)benzamide]	68.9		24.4
CCCCNc1nc(N)nc2cnn(Cc3ccc(C(=O)N4CCNC(=O)C4)cc3OC)c12 [Compound 115, 4-(4-{[5-amino-7-(butylamino)-1H-pyrazolo[4,3-d]pyrimidin-1-yl]methyl}-3-methoxybenzoyl)piperazin-2-one]	384	224	
CCCCNc1nc(N)nc2cnn(Cc3ccc(C(=O)N4CCC(CCO)CC4)cc3OC)c12 [Compound 116, 2-[1-(4-{[5-amino-7-(butylamino)-1H-pyrazolo[4,3-d]pyrimidin-1-yl]methyl}-3-methoxybenzoyl)piperidin-4-yl]ethan-1-ol]	41.6	42.6	
CCCCNc1nc(N)nc2c(C)nn(Cc3ccc(C(=O)NC4CCN(C)CC4)cc3OC)c12 [Compound 117, 4-{[5-amino-7-(butylamino)-3-methyl-1H-pyrazolo[4,3-d]pyrimidin-1-yl]methyl}-3-methoxy-N-(1-methylpiperidin-4-yl)benzamide]	467		56.9
CCCCNc1nc(N)nc2c(C)nn(Cc3ccc(C(=O)N4CCN(CCO)CC4)cc3OC)c12 [Compound 118, 2-[4-(4-{[5-amino-7-(butylamino)-3-methyl-1H-pyrazolo[4,3-d]pyrimidin-1-yl]methyl}-3-methoxybenzoyl)piperazin-1-yl]ethan-1-ol]	405	63.3	
CCCCNc1nc(N)nc2c(C)nn(Cc3ccc(C(=O)N4CCNC(=O)C4)cc3OC)c12 [Compound 119, 4-(4-{[5-amino-7-(butylamino)-3-methyl-1H-pyrazolo[4,3-d]pyrimidin-1-yl]methyl}-3-methoxybenzoyl)piperazin-2-one]	968	332	
CCCCNc1nc(N)nc2cnn(Cc3ccc(C(=O)N4CCN(CCO)CC4)cc3OC(F)F)c12 [Compound 120, 2-[4-(4-{[5-amino-7-(butylamino)-1H-pyrazolo[4,3-d]pyrimidin-1-yl]methyl}-3-(difluoromethoxy)benzoyl)piperazin-1-yl]ethan-1-ol]	1200	94.6	

Reference: US20230140430A1, “1H-PYRAZOLO[4,3-d]PYRIMIDINE COMPOUNDS AS TOLL-LIKE RECEPTOR 7 (TLR7) AGONISTS” (BRISTOL-MYERS SQUIBB COMPANY, priority 2020, published 2023)
